According to patent publication US9217156B2, “Non human animal model for ulcerative colitis and its main complications” (Institut National de la Sante et de la Recherche Medicale …, priority 2012, dated 2015):

Experiments:
WT and Nox1^KO mice = test: Tunicamycin (ERS inducer)-induced colitis in WT and Nox1 KO mice; format: in vivo; settings: mice overexpressing goblet cells (Nox1^KO) versus WT mice
IL10/Nox1^dKO mice = test: Salubrinal treatment of spontaneous colitis in IL10/Nox1 dKO mice; format: in vivo
Text: To assess the pathogenic role of goblet cells in UC, WT and Nox1^KO mice were subjected to oral administration of DSS or rectal administration of TNBS. […] IRE1beta and ATF6alpha branch signaling were extended in colonic epithelial cells as evidenced by the increased XBP-1 mRNA splicing, the induction of GRP78, GRP94, PDI at both mRNA and protein levels, and dilated cisternae and gross distortion of the ER in goblet cells. […] Consistent with reduced eIF2α phosphorylation, increased expression of PPP1R15A/GADD34, a stress-inducible protein that recruits the catalytic subunit of protein phosphatase 1 and promotes eIF2alpha dephosphorylation, was detected in agreement with our previous data in humans^1. EIF2alpha phosphorylation is cytoprotective during ERS, because cells are sensitized to cell death when this pathway is genetically ablated^33 and protected when it is ectopically enforced^34. To test whether a selective pharmacological inhibitor of GADD34-mediated eIF2alpha dephosphorylation may alleviate colitis, IL10/Nox1^dKO mice were treated with 1 mg/kg salubrinal^35 for up to three weeks.

[1] = IL10/Nox1^dKO mice, 1 mg/kg for up to three weeks
[2] = salubrinal-treated IL10/Nox1^dKO mice

tunicamycin
severity of colitis induced by tunicamycin treatment (WT and Nox1^KO mice): significantly induced a more severe colitis in mice overexpressing goblet cells than in WT mice

O=C(/C=C/c1ccccc1)NC(NC(=S)Nc1cccc2cccnc12)C(Cl)(Cl)Cl (centres unmarked) [salubrinal]
immune cell infiltration (IL10/Nox1^dKO mice; [1]): markedly prevented
mucosal architecture and goblet cells (IL10/Nox1^dKO mice; [1]): restored intact mucosal architecture with normal goblet cells
apoptosis of colonic mucosa (IL10/Nox1^dKO mice; IL10/Nox1^dKO mice, 1 mg/kg for up to three weeks, at least in part via CHOP expression): protected colonic mucosa against apoptosis
eIF2alpha phosphorylation in colonic mucosa (IL10/Nox1^dKO mice; IL10/Nox1^dKO mice, 1 mg/kg for up to three weeks, mainly detected in colonic epithelial cells): caused robust eIF2alpha phosphorylation
Grp78/Bip and Grp94 expression (IL10/Nox1^dKO mice; [2]): trend toward reduced
amount of colonic and splenic Treg cells (IL10/Nox1^dKO mice; [2]): strongly decreased to baseline
levels of proinflammatory cytokines (IL10/Nox1^dKO mice; [2]): strongly decreased to baseline
